One assay deals with IRAK4 enzyme (Homo sapiens (Human), UniProt Q9NWZ3). Briefly: biochemical. The note with it: IRAK4 enzyme, TR-FRET (HTRF), 500 μM ATP. The assay is classed as biochemical. A general note: In TR-FRET formats the signal depends on donor and acceptor labels being close together.
The test system of another assay is TNFα. Kind of assay: cells. The note with it: Homo sapiens, Monocyte, LPS-stimulated human monocytes, TNFα content; read-out: EC50 TNF. The assay is classed as cell-based, human.

Structures are written as SMILES. A value given as a limit tells only on which side of the number the result lay.

Sequence of IRAK4 enzyme (Q9NWZ3 whole entry): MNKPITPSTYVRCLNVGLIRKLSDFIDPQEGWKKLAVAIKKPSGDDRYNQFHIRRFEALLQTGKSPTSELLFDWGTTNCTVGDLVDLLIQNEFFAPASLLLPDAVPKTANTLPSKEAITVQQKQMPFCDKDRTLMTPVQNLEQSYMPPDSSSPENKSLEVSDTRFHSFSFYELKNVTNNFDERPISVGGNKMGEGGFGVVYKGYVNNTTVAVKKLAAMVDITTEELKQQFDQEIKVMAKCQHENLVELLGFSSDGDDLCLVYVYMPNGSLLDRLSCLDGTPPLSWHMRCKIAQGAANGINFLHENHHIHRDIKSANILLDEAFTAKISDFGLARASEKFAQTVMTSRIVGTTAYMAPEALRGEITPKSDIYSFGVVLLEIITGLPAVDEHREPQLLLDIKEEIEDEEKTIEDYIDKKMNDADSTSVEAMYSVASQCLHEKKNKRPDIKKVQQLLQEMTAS

By IC50 is commonly meant the concentration that gives 50% inhibition. High values mean lower potency, low ones higher potency. Usually EC50 stands for the concentration needed to bring the measured effect to its halfway point. Take `CC(C)(O)[C@H](F)CNC(=O)c1cnc(-c2ccc3cc(C#N)cnn23)cc1Nc1cnc(N)nc1` [Example 658, (R)-4-((2-aminopyrimidin-5-yl)amino)-6-(3-cyano-pyrrolo[1,2-b]pyridazin-7-yl)-N-(2-fluoro-3-hydroxy-3-methylbutyl)nicotinamide]: at IRAK4 enzyme, the IC50 is less than 0.001 µM. Besides, the EC50 with TNFα amounted to 0.037 µM.
On the same counts, the results for `CC(C)(O)[C@H](F)CNC(=O)c1cnc(-c2ccc3cc(C#N)cnn23)cc1N[C@H]1C[C@H](CNC(=O)[C@@H]2C[C@H]2F)C1` [Example 659, 6-(3-cyanopyrrolo[1,2-b]pyridazin-7-yl)-N-((R)-2-fluoro-3-hydroxy-3-methylbutyl)-4-(((1S,3R)-3-(((1S,2R)-2-fluoro-cyclopropane-1-carbox-amido)methyl)cyclobutyl)amino)nicotinamide] are less than 0.001 µM and 0.016 µM.
On the same counts, the results for `Cc1n[nH]c2cc(Nc3cc(-c4ccc5cc(C#N)cnn45)ncc3C(=O)NC[C@@H](F)C(C)(C)O)ccc12` [Example 660, (R)-6-(3-cyanopyrrolo[1,2-b]pyridazin-7-yl)-N-(2-fluoro-3-hydroxy-3-methylbutyl)-4-((3-methyl-1H-indazol-6-yl)amino) nicotinamide] are 0.001 µM and 0.064 µM.
For `CNc1ccc(Nc2cc(-c3ccc4cc(C#N)cnn34)ncc2C(=O)NC[C@@H](F)C(C)(C)O)cn1` [Example 661, (R)-6-(3-cyanopyrrolo[1,2-b]pyridazin-7-yl)-N-(2-fluoro-3-hydroxy-3-methylbutyl)-4-((6-(methylamino)pyridin-3-yl)amino)nicotinamide] the same measures were less than 0.001 µM and 0.019 µM.
The molecule `CC(=O)Nc1ccc(Nc2cc(-c3ccc4cc(C#N)cnn34)ncc2C(=O)NC[C@@H](F)C(C)(C)O)cn1` [Example 662, (R)-4-((6-acetamido-pyridin-3-yl)amino)-6-(3-cyanopyrrolo[1,2-b]pyridazin-7-yl)-N-(2-fluoro-3-hydroxy-3-methylbutyl)nicotinamide] came in with a concentration for half-maximal inhibition (IC50) at IRAK4 enzyme of less than 0.001 µM. Further, the EC50 with TNFα turned out to be 0.012 µM.
For `COCCOc1ncc(Nc2cc(-c3ccc4cc(C#N)cnn34)ncc2C(=O)NC[C@@H](F)C(C)(C)O)cn1` [Example 663, (R)-6-(3-cyanopyrrolo[1,2-b]pyridazin-7-yl)-N-(2-fluoro-3-hydroxy-3-methylbutyl)-4-((2-(2-methoxyethoxy)pyrimidin-5-yl)amino)nicotinamide] the same measures were less than 0.001 µM and 0.052 µM.
For `CC(C)(O)[C@H](F)CNC(=O)c1cnc(-c2ccc3cc(C#N)cnn23)cc1Nc1ccc(CO)nc1` [Example 664, (R)-6-(3-cyanopyrrolo[1,2-b]pyridazin-7-yl)-N-(2-fluoro-3-hydroxy-3-methylbutyl)-4-((6-(hydroxymethyl)pyridin-3-yl)amino)nicotinamide] the same measures were less than 0.001 µM and 0.014 µM.
For `CC(C)(O)[C@H](F)CNC(=O)c1cnc(-c2ccc3cc(C#N)cnn23)cc1Nc1ccc2c(c1)C1(CC1)C(=O)N2` [Example 665, (R)-6-(3-cyanopyrrolo[1,2-b]pyridazin-7-yl)-N-(2-fluoro-3-hydroxy-3-methylbutyl)-4-((2′-oxospiro[cyclopropane-1,3′-indolin]-5′-yl)amino)nicotinamide] the same measures were 0.008 µM and 0.299 µM.
At IRAK4 enzyme, `CC(C)(O)[C@H](F)CNC(=O)c1cnc(-c2ccc3cc(C#N)cnn23)cc1Nc1cnc(C2CC2)nc1` [Example 666, (R)-6-(3-cyanopyrrolo[1,2-b]pyridazin-7-yl)-4-((2-cyclopropylpyrimidin-5-yl)amino)-N-(2-fluoro-3-hydroxy-3-methylbutyl) nicotinamide] showed an IC50 of less than 0.001 µM. In the assay on TNFα, the EC50 stood at 0.03 µM.
For `COc1ccc(Nc2cc(-c3ccc4cc(C#N)cnn34)ncc2C(=O)NC[C@@H](F)C(C)(C)O)nc1` [Example 667, (R)-6-(3-cyanopyrrolo[1,2-b]pyridazin-7-yl)-N-(2-fluoro-3-hydroxy-3-methylbutyl)-4-((5-methoxypyridin-2-yl)amino)nicotinamide] the same measures were less than 0.001 µM and 0.045 µM.
On the same counts, the results for `CC(C)(O)[C@H](F)CNC(=O)c1cnc(-c2ccc3cc(C#N)cnn23)cc1Nc1cnc2c(c1)CC(=O)N2` [Example 668, (R)-6-(3-cyanopyrrolo[1,2-b]pyridazin-7-yl)-N-(2-fluoro-3-hydroxy-3-methylbutyl)-4-((2-oxo-2,3-dihydro-1H-pyrrolo[2,3-b]pyridin-5-yl)amino)nicotinamide] are 0.001 µM and 0.165 µM.
Take `CN(C)c1ncc(Nc2cc(-c3ccc4cc(C#N)cnn34)ncc2C(=O)NC[C@@H](F)C(C)(C)O)cn1` [Example 669, (R)-6-(3-cyanopyrrolo[1,2-b]pyridazin-7-yl)-4-((2-(dimethylamino)pyrimidin-5-yl)amino)-N-(2-fluoro-3-hydroxy-3-methylbutyl) nicotinamide]: the IC50 on IRAK4 enzyme was less than 0.001 µM. The EC50 in the assay with TNFα stood at 0.004 µM.
On the same counts, the results for `CC(C)(O)[C@H](F)CNC(=O)c1cnc(-c2ccc3cc(C#N)cnn23)cc1Nc1ccc(CO)cn1` [Example 670, (R)-6-(3-cyanopyrrolo[1,2-b]pyridazin-7-yl)-N-(2-fluoro-3-hydroxy-3-methylbutyl)-4-((5-(hydroxymethyl)pyridin-2-yl)amino)nicotinamide] are 0.093 µM and more than 10 µM.
For `CC(C)(O)[C@H](F)CNC(=O)c1cnc(-c2ccc3cc(C#N)cnn23)cc1Nc1cnc(N2CCOCC2)nc1` [Example 671, (R)-6-(3-cyanopyrrolo[1,2-b]pyridazin-7-yl)-N-(2-fluoro-3-hydroxy-3-methylbutyl)-4-((2-morpholinopyrimidin-5-yl)amino)nicotinamide] the same measures were less than 0.001 µM and 0.022 µM.
`CC(C)(O)[C@H](F)CNC(=O)c1cnc(-c2ccc3cc(C#N)cnn23)cc1NC1Cc2ccncc2C1` (stereo partly drawn) [Example 672, 6-(3-cyanopyrrolo[1,2-b]pyridazin-7-yl)-4-((6,7-dihydro-5H-cyclopenta[c]pyridin-6-yl)amino)-N-((R)-2-fluoro-3-hydroxy-3-methylbutyl)nicotinamide] came in with an IC50 against IRAK4 enzyme of less than 0.001 µM. The EC50 in the assay with TNFα came to 0.066 µM.
On the same counts, the results for `CC(C)(O)[C@H](F)CNC(=O)c1cnc(-c2ccc3cc(C#N)cnn23)cc1Nc1ccc(N2CCOCC2)nc1` [Example 673, (R)-6-(3-cyanopyrrolo[1,2-b]pyridazin-7-yl)-N-(2-fluoro-3-hydroxy-3-methyl-butyl)-4-((6-morpholino-pyridin-3-yl)amino) nicotinamide] are less than 0.001 µM and 0.019 µM.
On the same counts, the results for `CNC(=O)c1ncc(Nc2cc(-c3ccc4cc(C#N)cnn34)ncc2C(=O)NC[C@@H](F)C(C)(C)O)cn1` [Example 674, (R)-5-((2-(3-cyano-pyrrolo[1,2-b]pyridazin-7-yl)-5-((2-fluoro-3-hydroxy-3-methylbutyl)carbamoyl)pyridin-4-yl)amino)-N-methyl-pyrimidine-2-carboxamide] are less than 0.001 µM and 0.067 µM.
`CC(C)(O)[C@H](F)CNC(=O)c1cnc(-c2ccc3cc(C#N)cnn23)cc1Nc1ccc(N2CCC2)nc1` [Example 675, (R)-4-((6-(azetidin-1-yl)pyridin-3-yl)amino)-6-(3-cyanopyrrolo[1,2-b]pyridazin-7-yl)-N-(2-fluoro-3-hydroxy-3-methylbutyl)nicotinamide]: the IC50 against IRAK4 enzyme was less than 0.001 µM. The EC50 in the assay on TNFα was determined as 0.023 µM.
On IRAK4 enzyme, `CC(C)(O)[C@H](F)CNC(=O)c1cnc(-c2ccc3cc(C#N)cnn23)cc1Nc1ccc(CC#N)nc1` [Example 678, (R)-4-((6-(cyanomethyl)pyridin-3-yl)amino)-6-(3-cyanopyrrolo[1,2-b]pyridazin-7-yl)-N-(2-fluoro-3-hydroxy-3-methylbutyl)nicotinamide] showed an IC50 of less than 0.001 µM. Further, the EC50 in the assay on TNFα is 0.009 µM.
For `CN(C)c1ccc(Nc2cc(-c3ccc4cc(C#N)cnn34)ncc2C(=O)NC[C@@H](F)C(C)(C)O)cn1` [Example 679, (R)-6-(3-cyanopyrrolo[1,2-b]pyridazin-7-yl)-4-((6-(dimethylamino)pyridin-3-yl)amino)-N-(2-fluoro-3-hydroxy-3-methylbutyl)nicotinamide] the same measures were less than 0.001 µM and 0.017 µM.
For `CCc1ncc(Nc2cc(-c3ccc4cc(C#N)cnn34)ncc2C(=O)NC[C@@H](F)C(C)(C)O)cn1` [Example 680, (R)-6-(3-cyanopyrrolo[1,2-b]pyridazin-7-yl)-4-((2-ethylpyrimidin-5-yl)amino)-N-(2-fluoro-3-hydroxy-3-methylbutyl)nicotinamide] the same measures were less than 0.001 µM and 0.015 µM.
On the same counts, the results for `CC(C)(O)[C@H](F)CNC(=O)c1cnc(-c2ccc3cc(C#N)cnn23)cc1Nc1cnc(N2CCC2)nc1` [Example 681, (R)-4-((2-(azetidin-1-yl)pyrimidin-5-yl)amino)-6-(3-cyanopyrrolo[1,2-b]pyridazin-7-yl)-N-(2-fluoro-3-hydroxy-3-methylbutyl) nicotinamide] are less than 0.001 µM and 0.006 µM.
For `CC(C)(O)[C@H](F)CNC(=O)c1cnc(-c2ccc3cc(C#N)cnn23)cc1Nc1ccc(N2CC(F)(F)C2)nc1` [Example 682, (R)-6-(3-cyanopyrrolo[1,2-b]pyridazin-7-yl)-4-((6-(3,3-difluoroazetidin-1-yl)pyridin-3-yl)amino)-N-(2-fluoro-3-hydroxy-3-methylbutyl) nicotinamide], 0.001 µM corresponded to half-maximal inhibition against IRAK4 enzyme (IC50). In addition, the EC50 in the assay on TNFα is 0.022 µM.
On the same counts, the results for `CC(C)(C#N)c1ccc(Nc2cc(-c3ccc4cc(C#N)cnn34)ncc2C(=O)NC[C@@H](F)C(C)(C)O)cn1` [Example 683, (R)-4-((6-(2-cyanopropan-2-yl)pyridin-3-yl)amino)-6-(3-cyanopyrrolo[1,2-b]pyridazin-7-yl)-N-(2-fluoro-3-hydroxy-3-methyl-butyl)nicotinamide] are 0.001 µM and 0.045 µM.

The record behind these values is patent publication US10336762B2 (priority 2017, dated 2019).
